Data taken from patent US8575145B2, “Triazolopyridine compounds as PIM kinase inhibitors” (Array BioPharma Inc., priority 2008, dated 2013).
Where a name gives a salt, the structure may show the parent alone.

Key:
[1] = test system: PC3 (Androgen independent prostate cancer); test: Cellular Proliferation Assay, cell line A; assay type: cell-based; details: PC3, 72 hours, CelltiterBlue; read-out: Cell Line A antiproliferative IC50
Protocol: (§1) The assay for determination of the antiproliferative activity of multiple Pim inhibitors in the JAK2-driven cell lines was conducted as follows. Cells were plated out to 96-well plates at an initial density of 10,000 cells/well in 95 pt. Compounds were prepared at […] in DMSO by conducting 3-fold serial dilutions to give a 10-point dosing curve having a high dose of 1000 μM. Aliquots (5 μt) of these dilutions were then transferred to the appropriate wells of the 96-well plates containing cells to yield a final DMSO concentration of 0.5%. The cells were then incubated with compound for 72 hours at 37° C., 5% CO2. CelltiterBlue reagent (Promega, Catalog #: G8080) was then added (20 μL/well) and incubated at 37° C., 5% CO2 for 1-8 hours depending on the cell line being analyzed. The plate was then quantified employing a fluorescence plate reader (Model: Gemini [Molecular Devices]; Settings: 560 nm (Ex)/590 nm (Em) 570 nm (cut-off) [CellTiter Blue Assay].
(§2) The values for each well were then converted to a percent of untreated control (POC). These POC values were then plotted as a function of compound concentration. A 4-parameter curve-fit analysis was performed for each compound dilution and an IC50 value was calculated from this curve.
(§3) Cell lines • A: PC3 (Androgen independent prostate cancer) • B: K562 (Ph+chronic myelogenous leukemia) • C: MV4-11 (Acute myelogenous leukemia) • D: BxPC3 (Pancreatic Cancer) • E: HepG2 (Hepatocellular Carcinoma) • F: BaF3 (Mouse pro-B-cell line) • G: BaF3 TEL-JAK2 (Mouse pro-B-cell transformed with TEL-JAK2 fusion) • H: BaF2 BCR-Ab1 (Mouse pro-B-cell transformed with BCR-Ab1 fusion)

[2] = test system: K562 (Ph+chronic myelogenous leukemia); test: Cellular Proliferation Assay, cell line B; assay type: cell-based; details: Homo sapiens; K562, 72 hours, CelltiterBlue; read-out: Cell Line B antiproliferative IC50
Protocol: as §1, §2, §3

[3] = test system: BaF3 (Mouse pro-B-cell line); test: Cellular Proliferation Assay, cell line F; assay type: cell-based; details: BaF3, 72 hours, CelltiterBlue, read-out: Cell Line F antiproliferative IC50
Protocol: as §1, §2, §3

[4] = test system: BaF3 TEL-JAK2 (Mouse pro-B-cell transformed with TEL-JAK2 fusion); test: Cellular Proliferation Assay, cell line G; assay type: cell-based; details: BaF3 TEL-JAK2, 72 hours, CelltiterBlue, read-out: Cell Line G antiproliferative IC50
Protocol: as §1, §2, §3

CD4+ T cells [5] = test: T Cell in vitro Functional Assay (A): proliferation; assay type: cell-based; details: Mus musculus, anti-CD3/anti-CD28, 40 hours
Protocol: (§4) The in vitro assays to assess the effects of the compounds of Examples 16, 18 and 26 on T cells were conducted as described in assays A, B, C and D below. CD4+ T cells were isolated from red blood cell-depleted splenocytes of C57B1/6J mice (Jackson Laboratories, catalog #000664) using CD4+ T cell isolation kit (Miltenyi, catalog #130-090-860).
(§5) In assay (A), purified CD4+ T cells were plated in 96 well plates at 90000 cells/well in 90 μL. A dilution series of the compounds of Examples 16, 18 and 26 were prepared at 100× the final concentration in DMSO and then diluted 10-fold into complete media (10× stocks). 10 μL of 10×compound stocks were added to appropriate wells of 96 well plates containing cells and incubated for 1 hour at 37° C., 5% CO2. The cell/compound mixtures were then transferred to a 96 well plate coated with anti-CD3 mAb (1 μg/mL; BD Pharmingen, catalog #553057) and soluble anti-CD28 mAb (1 μg/mL; BD Pharmingen, catalog #553294) was added. Plates were cultured at 37° C., 5% CO2 for 40 hours. 20 μL of the culture were removed for determination of proliferation using the CellTitre-Glo™ luminescent assay (Promega, Catalog #G7571) according to the manufacturer's protocol. The plate was quantified on a Packard TopCount instrument using luminescence protocol and data was analyzed using Prism software.
(§6) For each of assays A, B, C and D, the values for each well were converted to a percent of vehicle-treated (DMSO) control (POC). These POC values were plotted as a function of compound concentration and an IC50 calculated using a 4-parameter curve-fit analysis program.

CD4+ T cells [6] = test: T Cell in vitro Functional Assay (B): IL-2 production; assay type: cell-based; details: Mus musculus, anti-CD3/anti-CD28, 40 hours, ELISA
Protocol: as §4, §5
In assay (B), purified CD4+ cells were treated with compound and stimulated as described for assay (A). After 40 hours, supernatants were assayed for IL-2 using R&D duo set ELISA kits (catalog #DY402). ELISA plates were quantified relative to a standard curve using Molecular Devices Versamax Reader at […] and Softmax Pro software.
as §6

CD4+ T cells [7] = test: T Cell in vitro Functional Assay (D): IL-22 production; assay type: cell-based; details: Mus musculus; CD4+ T cells cultured with IL-6/TGFβ, IL-23 stimulation 18 hours, ELISA
Protocol: as §4
In assay (D), 1,000,000 cells/mL of purified CD4+ T cells were mixed with 1 μg/mL anti-CD28, 50 ng/mL IL-6 (R&D Systems cat #406-ML-025/CF), 1 ng/mL TGFβ (R&D Systems cat #303-B2-002), 2 μg/mL anti-IL-4 (R&D Systems cat #AB-404-NA), 2 μg/mL anti-IFNγ (R&D Systems cat #AB-485-NA) and placed into plates coated with 1 μg/mL anti-CD3. After 4 days, cells were harvested, washed and 100,000 cells were plated into 96 well plate. A dilution series of compounds were prepared at 200× the final concentration in DMSO, then 10× stocks were prepared by dilution in cell culture media. 10 μL of 10× stocks were added to the cells in the 96 well plate. After 2 hours, 50 ng IL-23 (R&D Systems catalog #1887-ML-010/CF) was added to each well and 18 hours later supernatants were removed and tested for IL-22 levels by ELISA (R&D Systems catalog #M2200). ELISA plates were quantified relative to a standard curve using Molecular Devices Versamax Reader at […] and Softmax Pro software.
as §6

recombinant rat PIM-3 = recombinant rat PIM-3 (Rattus norvegicus (Rat), UniProt O70444); test: PIM-3 Enzyme Assay; details: read-out: PIM-3 IC50; 30 μM ATP, 0.5 nM PIM-3
Protocol: The amount of radiolabeled product is then measured by liquid scintillation counting. The final buffer conditions were as follows: 20 mM K^+MOPS, pH 7.4, 10 mM MgCl2, 0.005% Tween-20, 1 mM DTT. […] Incubations were carried out for 60 min at 22° C. and quenched with 75 μL of 200 mM H3PO4, filtered through a Whatman P81 plate and washed (1×200 μL and 5×100 μL ) with 200 mM H3PO4. Liquid scintillation cocktail (50 μL ) was then added per well, and the plate was counted for 30 s/well using a TopCount NXT.
One-μL aliquots of these were then transferred to the assay mixtures above to give a final concentration of DMSO of 2%. […] For each plate, percent of control (POC) values were calculated for each well. IC50's were estimated from the POC's using a standard 4-parameter logistic model. The IC50 is defined as the concentration of inhibitor at which the POC equals 50 for the fitted curve.

IC50 [1] | IC50 [2] | IC50 [3] | IC50 [4] | IC50 (CD4+ T cells [6]) | IC50 (CD4+ T cells [7]) | IC50 (recombinant rat PIM-3) | SMILES | IC50 (CD4+ T cells [5])
< 5 µM | < 10 µM | < 2 µM | < 2 µM | ≤ 1 µM | ≤ 1 µM | 0.004 µM | c1cc(OCC2CCCNC2)c2nc(-c3nnc4ccccn34)ccc2c1 (stereo not drawn) [Example 16, 2-([1,2,4]Triazolo[4,3-a]pyridin-3-yl)-8-(piperidin-3-ylmethoxy)quinoline] | ≤ 1 µM
< 2 µM | < 5 µM | < 2 µM | < 2 µM | ≤ 1 µM | ≤ 1 µM | 0.002 µM | CC(C)(CN)COc1cccc2ccc(-c3nnc4ccccn34)nc12 [Example 18, 3-(2-([1,2,4]Triazolo[4,3-a]pyridin-3-yl)quinolin-8-yloxy)-2,2-dimethylpropan-1-amine] | ≤ 1 µM

SMILES | IC50 [1] | IC50 [2] | IC50 [3] | IC50 [4] | IC50 (CD4+ T cells [6]) | IC50 (CD4+ T cells [7]) | IC50 (recombinant rat PIM-3) | IC50 (CD4+ T cells [5])
F[C@@H]1CNCCC1Oc1cccc2ccc(-c3nnc4ccccn34)nc12 (stereo in doubt) [Example 26, 2-([1,2,4]triazolo[4,3-a]pyridin-3-yl)-8-((cis)-3-fluoropiperidin-4-yloxy)quinoline dihydrochloride] | < 5 µM | < 10 µM | < 2 µM | < 2 µM | ≤ 5 µM | ≤ 5 µM | 0.009 µM | ≤ 5 µM
